Source: US9006226B2, “Dihydropteridinones I” (Boehringer Ingelheim International GmbH, priority 2012, dated 2015)

Tested on: Aβ42
Test: Aβ42 vs. Aβ total production in H4 neuroglioma cells stably expressing human APP695 (Meso Scale Discovery electrochemiluminescence assay)
Assay type: cell-based
Details: the higher the ratio, the more specific the inhibition of Aβ42
Experimental: Cells were plated out to near confluency. The compounds to be tested were received as 10 mM stocks in 100% DMSO. A dilution series was initially generated in 100% DMSO and then diluted 200-fold in cell culture media such that the tested concentration range was 30 μM to 0.1 nM and the final DMSO concentration was 0.5%. The diluted compounds were incubated with the cells for 22 hours in an incubator at 37° C. and 5% CO2. Aβ42 as well as Aβ total levels were then measured post-incubation from the supernatant of the cells. Aβ42 levels were determined using a specific electrochemiluminescence assay provided by Meso Scale Discovery (Catalog #L21CA-1) according to the manufacturer's protocol. Aβ total levels were likewise determined using a specific electrochemiluminescence assay provided by Meso Scale Discovery (Catalog #L21ZA-1) according to the manufacturer's protocol.
In order to absolutely define the described compounds as modulators of γ-Secretase as opposed to simply inhibitors of γ-Secretase, measurements of not only Aβ42 but also Aβ total are performed.

SMILES | Ratio Aβ(total)/Aβ42 (Aβ total IC50/Aβ42 IC50)
COc1cc(Nc2ncc3c(n2)N2CCCCCC2C(=O)N3C)ccc1-n1cnc(C)c1 (stereo not shown) [Example 2] | 59
CCN1C(=O)C2CCCCCN2c2nc(Nc3ccc(-c4ccnc(C)c4)cc3)ncc21 (stereo not shown) [Example 3] | 17
CCCN1C(=O)C2CCCCCN2c2nc(Nc3ccc(-n4cnc(C)c4)c(OC)c3)ncc21 (stereo not shown) [Example 4] | 44
CCN1C(=O)C2CCCCCN2c2nc(Nc3ccc(-n4ccnc4)c(OC)c3)ncc21 (stereo not shown) [Example 5-2] | 64
CCN1C(=O)C2CCCCCN2c2nc(Nc3cnc(-n4cnc(C)c4)c(OC)c3)ncc21 (stereo not shown) [Example 5-4] | >175
CCN1C(=O)C2CCCCCN2c2nc(Nc3ccc(-c4cnc(C)s4)c(OC)c3)ncc21 (stereo not shown) [Example 5-5] | 13
CCN1C(=O)C2CCCCCN2c2nc(Nc3ccc(-n4cnc(C)c4)cc3)ncc21 (stereo not shown) [Example 5-6] | 43
CCN1C(=O)C2CCCCCN2c2nc(Nc3ccc(-n4cnc(C)c4)cc3OC)ncc21 (stereo not shown) [Example 5-7] | 3
CCCN1C(=O)C2CCCCCN2c2nc(Nc3ccc(-c4ccnc(C)c4)cc3)ncc21 (stereo not shown) [Example 5] | 14
CCc1nc(Nc2ccc(-n3cnc(C)c3)c(OC)c2)nc2c1N(C)C(=O)C1CCCN21 (stereo not shown) [Example 6] | 96
CCc1nc(Nc2ccc(-n3cnc(C)c3)c(OC)c2)nc2c1NC(=O)C1CCCN21 (stereo not shown) [Example 7] | 98
CCc1nc(Nc2ccc(-c3ccnc(C)c3)cc2)nc2c1N(C)C(=O)C1CCCN21 (stereo not shown) [Example 8] | 62
CCc1nc(Nc2ccc(-c3cnc(C)o3)nc2)nc2c1N(C)C(=O)C1CCCN21 (stereo not shown) [Example 9] | >24
COc1cc(Nc2ncc3c(n2)N2CCCC2C(=O)N3C)ccc1-n1cnc(C)c1 (stereo not shown) [Example 11] | >310
COc1cc(Nc2ncc3c(n2)N2CCCC2C(=O)N3C)ccc1-n1cnc(C)n1 (stereo not shown) [Example 12-1] | >10
CN1C(=O)C2CCCN2c2nc(Nc3ccc(-c4cnn(C)c4)nc3)ncc21 (stereo not shown) [Example 12-2] | >5
Cc1cn(-c2ccc(Nc3ncc4c(n3)N3CCCC3C(=O)N4C)cc2F)cn1 (stereo not shown) [Example 12-3] | >27
COc1cc(Nc2ncc3c(n2)N2CCCC2C(=O)N3C)ccc1-n1ncnc1C (stereo not shown) [Example 12-4] | >39
COc1cc(Nc2nc(SC)c3c(n2)N2CCCCC2C(=O)N3C)ccc1-n1cnc(C)c1 (stereo not shown) [Example 13] | 14
CCc1nc(Nc2ccc(-n3cnc(C)c3)c(OC)c2)nc2c1N(C)C(=O)[C@@H]1C[C@@H](OC)CN21 [Example 14] | 67

The remaining lines, values ahead:

Ratio Aβ(total)/Aβ42 (Aβ total IC50/Aβ42 IC50) | SMILES
71 | CCc1nc(Nc2ccc(-n3cnc(C)c3)c(OC)c2)nc2c1NC(=O)[C@H]1[C@@H](c3ccc(F)cc3)CCN21 (racemic) [Example 22]
90 | CCc1nc(Nc2ccc(-n3cnc(C)c3)c(OC)c2)nc2c1N(C)C(=O)[C@H]1[C@H](c3ccc(F)cc3)CCN21 (racemic) [Example 23]
70 | CCc1nc(Nc2ccc(-n3cnc(C)c3)c(OC)c2)nc2c1NC(=O)[C@@]1(C)[C@@H](OC)CN21 (racemic) [Example 27]
36 | CCc1nc(Nc2ccc(-n3cnc(C)c3)c(C#N)c2)nc2c1N(C)C(=O)[C@@H]1C[C@@H](OC)CN21 [Example 15]
33 | CCc1nc(Nc2ccc(-n3cnc(C)c3)c(C#N)c2)nc2c1NC(=O)[C@@H]1C[C@@H](OC)CN21 [Example 16]
68 | CCc1nc(Nc2ccc(-n3cnc(C)c3)c(OC)c2)nc2c1NC(=O)[C@@H]1C[C@@H](OC)CN21 [Example 17]
82 | CCc1nc(Nc2ccc(-c3cnc(C)o3)c(OC)c2)nc2c1NC(=O)[C@@H]1C[C@@H](OC)CN21 [Example 19]
73 | CCc1nc(Nc2ccc(-n3cnc(C)c3)c(OC)c2)nc2c1N(C)C(=O)[C@]1(C)C[C@@H](OC)CN21 [Example 25]
29 | CCc1nc(Nc2ccc(-n3cnc(C)c3)c(OC)c2)nc2c1NC(=O)C1COCCN21 (stereo not shown) [Example 28]
76 | CCc1nc(Nc2ccc(-n3cnc(C)c3)c(OC)c2)nc2c1N(C)C(=O)C1COCCN21 (stereo not shown) [Example 29]
96 | COc1cc(Nc2ncc3c(n2)N2CCCOCC2C(=O)N3)ccc1-n1cnc(C)c1 (stereo not shown) [Example 30]
55 | COc1cc(Nc2ncc3c(n2)N2CCCOC2(C)C(=O)N3C)ccc1-n1cnc(C)c1 (stereo not shown) [Example 31]
66 | COc1cc(Nc2nc(C(C)C)c3c(n2)N2CCCC2C(=O)N3C)ccc1-n1cnc(C)c1 (stereo not shown) [Example 32]
30 | CC(C)Cc1nc(Nc2ccc(-c3cnn(C)c3)cc2)nc2c1N(C)C(=O)C1CCCN21 (stereo not shown) [Example 34]
71 | Cc1cn(-c2ccc(Nc3nc(CC(C)C)c4c(n3)N3CCCC3C(=O)N4C)cc2C#N)cn1 (stereo not shown) [Example 35]
86 | CCc1nc(Nc2ccc(-n3cnc(C)c3)c(OC)c2)nc2c1N(C)C(=O)C1CCCCN21 (stereo not shown) [Example 36]
12 | COc1cc(Nc2nc(C(C)C)c3c(n2)N2CCN(C(=O)OC(C)(C)C)CC2C(=O)N3C)ccc1-n1cnc(C)c1 (stereo not shown) [Example 37]
